In patent US20230097883A1, “ERGOTHIONEINE PET COMPOUNDS AND METHODS OF USE THEREOF” (VANDERBILT UNIVERSITY, priority 2021, published 2023):

How the values were obtained:
Type in all cases: in vivo, mouse
oxidative stress = assay: [11C]ERGO PET imaging of oxidative stress after ERGO treatment; details: ERGO-treated versus non-treated 5XFAD mice, 20-min dynamic scan after IV injection
Procedure: (§1) To address our primary question whether longitudinal consumption of ERGO as a potent antioxidant benefit the brain, three cohorts of animals (n=12 non-treated WT control, n=12 non-treated 5XFAD, and n=18 ERGO-treated 5XFAD) were used (FIG. 3.2A). Starting at the age of 8 weeks, the animals were treated with high doses of ERGO solution (25-50 mg/Kg) formulated in double distilled (dd) water via oral gavage three times a week over the course of eight weeks. To reduce bias in the behavioral experiments with regard to the potential stress during gavage treatment, non-treated animals underwent the identical gavage process with the vehicle, water, only. The efficacy of the therapy was evaluated by behavioral testing, followed by three different non-invasive PET imaging sessions to assess biomarkers related to AD pathology. In addition to assessing Abeta levels and glucose metabolism using the [^11C]PIB and [^18F]FDG probes, respectively; we also tested for the first time whether oxidative stress could be used as an indicator of response to therapy using the [^11C]ERGO PET radioligand. Finally, animals were euthanized, and the brains were collected for immunohistochemical analysis.
Thus, in this study, [^11C]ERGO PET radioligand was used to assess the fluctuation in oxidative stress with respect to ERGO therapy. […]

5XFAD mice = assay: Novel object recognition after ERGO treatment; details: ERGO-treated 5XFAD versus non-treated 5XFAD and WT, final test trial
Procedure: as §1, with “In addition to assessing Abeta levels and glucose metabolism using the [^11C]PIB and [^18F]FDG probes, respectively; we also tested for the first time whether oxidative stress could be used as an indicator of response to therapy using the [^11C]ERGO PET radioligand. Finally, animals were euthanized, and the brains were collected for immunohistochemical analysis.” left out
Mice were first allowed to habituate to an open arena for 5 min (white acrylic box, approximately 40 cm^2) located under a camera to record position and movement during trials. […] Preference for either object was inferred from exploratory proximity which was recorded automatically using AnyMaze using a target area comprising a circle with diameter 2-cm larger than the target objects. […]

GFAP-positive astrocytes = assay: GFAP immunohistochemistry of brain sections after ERGO treatment; details: ERGO-treated versus non-treated 5XFAD mice
Procedure: In this study, after the PET imaging, animals (non-treated 5XFAD (n=3) and ERGO-treated 5XFAD mice (n=5)) were perfused, and the brain sections were stained with antibodies against GFAP and IBA1 for neuroinflammatory markers astrocytes and microglia, respectively.
Brains embedded in OCT were cut into sagittal sections (10 μm) using a Tissue-Tek cryostat and mounted onto charged glass slides. Prior to staining, slides were washed with PBS (10 min); then, they were treated with blocking buffer (5% normal goat serum, 0.2% Triton X-100, 0.5% bovine albumin in PBS) for 1 h at room temperature. The treated sections were then incubated overnight at 4° C. with primary anti-GFAP antibody (1:100 dilution, Biolegend San Diego, Calif., USA). Slides were washed with PBS (3×) for 10 min each, the sections were subsequently incubated with secondary antibody goat anti-mouse Alexa Fluor 488 (1:200 dilution, Thermo Fisher Scientific, Carlsbad, Calif., USA) for 30 min at room temperature. The sections were then washed with PBS twice for 10 min and once for 30 min, and coverslipped with an antifade mounting medium (Vector Laboratories, Burlingame, Calif.) before observation under a fluorescence microscope.
Quantitative analysis of the PET imaging and IHC data was performed using imageJ software. […]

C[N+](C)(C)[C@@H](Cc1c[nH]c(=S)[nH]1)C(=O)[O-] [ERGO, L-ergothioneine]
[11C]ERGO PET signal pertaining to oxidative stress in the brain (oxidative stress): very modest reduction in PET signal
discrimination index (5XFAD mice): did not vary among the groups
reduction of GFAP-positive astrocytes in the hippocampus (GFAP-positive astrocytes): ~50%
